Laboratory results from patent US11957759B1, “Rapidly accelerated fibrosarcoma (RAF) degrading compounds and associated methods of use” (Arvinas Operations, Inc., priority 2022, dated 2024).

Columns and labels:
Format in all cases: cell-based
B-RAF V600E [1] = molecular target: T1, B-RAF V600E (Homo sapiens, UniProt P15056, V600E); assay: Target protein degradation, assay A: T-Rex 293 cells, HA-B-RAF_V600E, 96 well format; conditions: T-Rex 293 HA-B-RAF_V600E cells, 24 hours, Examples 1-82
T1 construct: expressed in transfected cells; host or cells: T-Rex 293 cells (Invitrogen #R71007)
Protocol: A. T-Rex 293 Cells (96 well format)
T-Rex 293 cells were purchased from Invitrogen (#R71007), and stably transfected with a pcDNA4/TO_HA-B-RAF_V600E construct, using 400 ug Zeocin for selection. V600e cells are plated in ulbecco's Modified Eagle Medium (DMEM; Gibco #11965118) containing 10% fetal bovine serum (FBS; Gibco #16000044) and 1 ng/mL doxycycline (Selleckchem #4163) at a density of 5,000 cells/well in 50 μl on poly-D-lysine (PDL) coated, black clear bottom 96-well plates (Corning #354640) and incubated for 24 hours at 37° C. with 5% CO2. The following day 50 ul of tested compound was added at 2× concentration in DMEM with a final concentration ranging from 1 μM to 0.1 nM in 0.1% dimethylsulfoxide (DMSO), and incubated for 24 hours at 37° C. with 5% CO2. At the end of the experimental treatment, the media was flicked off and cells washed once with phosphate-buffered saline (PBS)++(PBS with CaCl and MgCl) and gently replacing with 200 μl PBS++ per well. The PBS++ was removed and 50 uL 4% paraformaldehyde (PFA; EMS #15710) in PBS++ was added, and incubate at room temperature for 15 minutes. Cells were washed once with PBS++ and 50 uL 0.1% Triton X-100 (Fisher #BP151-500) in PBS++ was added. Plate was incubate for 5 minutes at room temperature. Cells were was once with PBS++. Cells were blocked with 100 uL Licor blocking buffer (Licor #927-50000) for 1 hour at room temperature. Next, 50 uL of HA antibody (CST #3724) at 1:1000 in Licor blocking buffer was added, and the plate icubate overnight at 4° C. The plates were parafilmed to prevent evaporation. Plate was washed three times with 200 uL PBS++. Fifty microliters of HCS secondary antibody solution [1:1000 Hoechst (Invitrogen #H3570), 1:1000 phalloidin (Invitrogen #A22287) and 1:5000 Alexa fluor (Invitrogen #A11008)] was added and incubated for 1 hour. Plate was wash three times with 200 uL PBS++, and imaged on a high content reader (ImageXpress Micro XLS, Molecular Devices).
The concentration of an exemplary compound that leads to half maximal degradation (DC50) as well as the maximum degradation observed (Dmax, conventionally expressed as a percentage of control) is shown below in Table 2.

B-RAF G466V = molecular target: T2, B-RAF G466V (Homo sapiens, UniProt P15056, G466V); assay: Target protein degradation, assay D: T-Rex 293 cells, HA-BRAF_G466V, 384 well format; conditions: T-Rex 293 HA-BRAF_G466V cells, 24 hours, Examples 83-269; for DC50: Assay D; for Dmax: T-REx-293, Assay D
T2 construct: expressed in transfected cells; host or cells: T-Rex 293 cells (Invitrogen #R71007)
Outline: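 Degradation measured by high-content imaging of anti-HA immunofluorescence in fixed T-Rex 293 cells carrying inducible HA-BRAF G466V (1 ng/mL doxycycline), after 24 h PROTAC exposure at 37 °C over 300 nM–5 pM (1:3, 11 points, 0.5% DMSO). Outputs DC50 and Dmax as % of control; nuclei counts against DMSO wells gauge toxicity.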

B-RAF V600E [2] = molecular target: T1, B-RAF V600E; assay: Target protein degradation, assay C: T-Rex 293 cells, HA-BRAF_V600E, 384 well format; conditions: T-Rex 293 HA-BRAF_V600E cells, 24 hours, Examples 83-269; for DC50: Assay C; for Dmax: T-REx-293, Assay C
Outline: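 After 24 h exposure to an 11-point 1:3 series (300 nM–5 pM, 0.5% DMSO), fixed T-Rex 293 cells carrying HA-BRAF V600E (induced with 1 ng/mL doxycycline) were stained anti-HA and imaged. DC50 and Dmax were derived from BRAF intensity relative to control, and cytotoxicity from nuclear counts.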

T1 sequence (P15056 whole entry V600E): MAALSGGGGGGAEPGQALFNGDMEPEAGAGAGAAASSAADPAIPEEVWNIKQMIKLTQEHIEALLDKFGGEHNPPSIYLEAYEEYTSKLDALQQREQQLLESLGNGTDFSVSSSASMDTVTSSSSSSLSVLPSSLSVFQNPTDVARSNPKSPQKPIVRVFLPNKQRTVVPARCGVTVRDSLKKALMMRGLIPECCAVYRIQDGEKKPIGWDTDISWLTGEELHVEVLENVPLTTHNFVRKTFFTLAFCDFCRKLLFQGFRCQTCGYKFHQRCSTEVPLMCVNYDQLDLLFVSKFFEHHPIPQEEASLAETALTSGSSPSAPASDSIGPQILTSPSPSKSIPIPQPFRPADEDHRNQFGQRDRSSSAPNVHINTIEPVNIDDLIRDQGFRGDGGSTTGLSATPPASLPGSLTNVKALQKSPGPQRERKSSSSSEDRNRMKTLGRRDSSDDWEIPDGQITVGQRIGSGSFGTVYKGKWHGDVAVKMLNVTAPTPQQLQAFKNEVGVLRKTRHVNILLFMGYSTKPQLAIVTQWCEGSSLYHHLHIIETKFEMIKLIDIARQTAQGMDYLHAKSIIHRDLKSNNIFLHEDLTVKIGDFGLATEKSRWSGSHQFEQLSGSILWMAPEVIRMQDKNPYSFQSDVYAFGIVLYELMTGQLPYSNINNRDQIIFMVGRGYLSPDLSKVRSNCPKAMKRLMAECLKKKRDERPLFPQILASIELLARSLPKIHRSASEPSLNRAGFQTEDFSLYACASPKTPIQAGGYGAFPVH
T2 sequence (P15056 whole entry G466V): as the sequence (P15056 whole entry V600E) above, with G466V, E600V counted along it

Row | SMILES | DC50 (B-RAF V600E [1]) | Dmax (B-RAF V600E [1]) | DC50 (B-RAF G466V) | Dmax (B-RAF G466V) | DC50 (B-RAF V600E [2]) | Dmax (B-RAF V600E [2])
1 | N#Cc1c(NS(=O)(=O)N2CC[C@@H](F)C2)ccc(F)c1Oc1ccc2ncn(-c3ccc(N4CCC(CN5CCC(c6ccc7c(c6)CN([C@H]6CCC(=O)NC6=O)C7=O)CC5)CC4)cc3)c(=O)c2c1 [Example 81, (3R)—N-(2-cyano-3-{[3-(4-{4-[(4-{2-[(3S)-2,6-dioxopiperidin-3-yl]-1-oxo-2,3-dihydro-1H-isoindol-5-yl}piperidin-1-yl)methyl]piperidin-1-yl}phenyl)-4-oxo-3,4-dihydroquinazolin-6-yl]oxy}-4-fluorophenyl)-3-fluoropyrrolidine-1-sulfonamide] | 50 to 500 nM | 35 to 70% | – | – | – | –
2 | N#Cc1c(NS(=O)(=O)N2CC[C@@H](F)C2)ccc(F)c1Oc1ccc2ncn(-c3ccc(C4CCN(CC5CC6(CCN(c7ccc8c(c7)CN([C@H]7CCC(=O)NC7=O)C8=O)CC6)C5)C4)cc3)c(=O)c2c1 (stereo partly drawn) [Example 263, (3R)-N-(2-cyano-3-{[3-(4-{1-[(7-{2-[(3S)-2,6-dioxopiperidin-3-yl]-1-oxo-2,3-dihydro-1H-isoindol-5-yl}-7-azaspiro[3.5]nonan-2-yl)methyl]pyrrolidin-3-yl}phenyl)-4-oxo-3,4-dihydroquinazolin-6-yl]oxy}-4-fluorophenyl)-3-fluoropyrrolidine-1-sulfonamide] | – | – | 1 to 10 nM | ≥ 70% | 50 to 500 nM | ≥ 70%
3 | CCN(CC1CCN(c2ccc(-n3cnc4ccc(Oc5c(F)ccc(NS(=O)(=O)N6CC[C@@H](F)C6)c5C#N)cc4c3=O)cc2)CC1)[C@H]1C[C@@H](Oc2ccc3c(c2)CN([C@H]2CCC(=O)NC2=O)C3=O)C1 [Example 264, (3R)-N-{2-cyano-3-[(3-{4-[4-({ethyl[(1r,3r)-3-({2-[(3S)-2,6-dioxopiperidin-3-yl]-1-oxo-2,3-dihydro-1H-isoindol-5-yl}oxy)cyclobutyl]amino}methyl)piperidin-1-yl]phenyl}-4-oxo-3,4 dihydroquinazolin-6-yl)oxy]-4-fluorophenyl}-3-fluoropyrrolidine-1-sulfonamide] | – | – | 1 to 10 nM | 35 to 70% | 50 to 500 nM | 35 to 70%
4 | N#Cc1c(NS(=O)(=O)N2CC[C@@H](F)C2)ccc(F)c1Oc1ccc2ncn(-c3ccc(N4CCN(CC5CCN(c6cc7c(c(OC(F)(F)F)c6)C(=O)N(C6CCC(=O)NC6=O)C7)CC5)CC4)cc3)c(=O)c2c1 (stereo partly drawn) [Example 265, (3R)-N-{2-cyano-3-[(3-{4-[4-({1-[2-(2,6-dioxopiperidin-3-yl)-1-oxo-7-(trifluoromethoxy)-2,3-dihydro-1H-isoindol-5-yl]piperidin-4-yl}methyl)piperazin-1-yl]phenyl}-4-oxo-3,4-dihydroquinazolin-6-yl)oxy]-4-fluorophenyl}-3-fluoropyrrolidine-1-sulfonamide] | – | – | 10 to 30 nM | 35 to 70% | 50 to 500 nM | 35 to 70%
5 | N#Cc1c(NS(=O)(=O)N2CC[C@@H](F)C2)ccc(F)c1Oc1ccc2ncn(-c3ccc(N4CCN(CC5CCN(c6cc7c(c(C(F)(F)F)c6)C(=O)N(C6CCC(=O)NC6=O)C7)CC5)CC4)cc3)c(=O)c2c1 (stereo partly drawn) [Example 266, (3R)-N-{2-cyano-3-[(3-{4-[4-({1-[2-(2,6-dioxopiperidin-3-yl)-1-oxo-7-(trifluoromethyl)-2,3-dihydro-1H-isoindol-5-yl]piperidin-4-yl}methyl)piperazin-1-yl]phenyl}-4-oxo-3,4-dihydroquinazolin-6-yl)oxy]-4-fluorophenyl}-3-fluoropyrrolidine-1-sulfonamide] | – | – | > 30 nM | – | 50 to 500 nM | 35 to 70%

Results, then the compound that gave them:

Row | DC50 (B-RAF V600E [1]) | Dmax (B-RAF V600E [1]) | DC50 (B-RAF G466V) | Dmax (B-RAF G466V) | DC50 (B-RAF V600E [2]) | Dmax (B-RAF V600E [2]) | SMILES
6 | – | – | 1 to 10 nM | 35 to 70% | 50 to 500 nM | 35 to 70% | N#Cc1c(NS(=O)(=O)N2CC[C@@H](F)C2)ccc(F)c1Oc1ccc2ncn(-c3ccc(C4CCN(CC5CN(c6ccc7c(c6Cl)CN([C@H]6CCC(=O)NC6=O)C7=O)C5)CC4)cc3)c(=O)c2c1 [Example 258, (3R)-N-(3-{[3-(4-{1-[(1-{4-chloro-2-[(3S)-2,6-dioxopiperidin-3-yl]-1-oxo-2,3-dihydro-1H-isoindol-5-yl}azetidin-3-yl)methyl]piperidin-4-yl}phenyl)-4-oxo-3,4-dihydroquinazolin-6-yl]oxy}-2-cyano-4-fluorophenyl)-3-fluoropyrrolidine-1-sulfonamide]
7 | – | – | 1 to 10 nM | ≥ 70% | 5 to 50 nM | ≥ 70% | N#Cc1c(NS(=O)(=O)N2CC[C@@H](F)C2)ccc(F)c1Oc1ccc2ncn(-c3ccc(N4CCC(CN5CCC6(CCC(c7ccc8c(c7)CN([C@H]7CCC(=O)NC7=O)C8=O)CC6)CC5)CC4)cc3)c(=O)c2c1 [Example 262, (3R)-N-(2-cyano-3-{[3-(4-{4-[(9-{2-[(3S)-2,6-dioxopiperidin-3-yl]-1-oxo-2,3-dihydro-1H-isoindol-5-yl}-3-azaspiro[5.5]undecan-3-yl)methyl]piperidin-1-yl}phenyl)-4-oxo-3,4-dihydroquinazolin-6-yl]oxy}-4-fluorophenyl)-3-fluoropyrrolidine-1-sulfonamide]
8 | – | – | 10 to 30 nM | 35 to 70% | 50 to 500 nM | 35 to 70% | COCCN(CC1CCN(c2ccc(-n3cnc4ccc(Oc5c(F)ccc(NS(=O)(=O)N6CC[C@@H](F)C6)c5C#N)cc4c3=O)cc2)CC1)[C@H]1C[C@@H](Oc2ccc3c(c2)CN([C@H]2CCC(=O)NC2=O)C3=O)C1 [Example 267, (3R)-N-[2-cyano-4-fluoro-3-({3-[4-(4-{[(2-methoxyethyl)[(1r,3r)-3-({2-[(3S)-2,6-dioxopiperidin-3-yl]-1-oxo-2,3-dihydro-1H-isoindol-5-yl}oxy)cyclobutyl]amino]methyl}piperidin-1-yl)phenyl]-4-oxo-3,4-dihydroquinazolin-6-yl}oxy)phenyl]-3-fluoropyrrolidine-1-sulfonamide]
9 | – | – | 10 to 30 nM | ≤ 35% | > 500 nM | – | CC(=O)N(CC1CCN(c2ccc(-n3cnc4ccc(Oc5c(F)ccc(NS(=O)(=O)N6CC[C@@H](F)C6)c5C#N)cc4c3=O)cc2)CC1)[C@H]1C[C@@H](Oc2ccc3c(c2)CN([C@H]2CCC(=O)NC2=O)C3=O)C1 [Example 268, N-{[1-(4-{6-[2-cyano-6-fluoro-3-({[(3R)-3-fluoropyrrolidin-1-yl]sulfonyl}amino)phenoxy]-4-oxo-3,4-dihydroquinazolin-3-yl}phenyl)piperidin-4-yl]methyl}-N-[(1r,3r)-3-({2-[(3S)-2,6-dioxopiperidin-3-yl]-1-oxo-2,3-dihydro-1H-isoindol-5-yl}oxy)cyclobutyl]acetamide]
10 | – | – | 10 to 30 nM | ≥ 70% | 50 to 500 nM | 35 to 70% | CC(C)(C1CCN(c2ccc(-n3cnc4ccc(Oc5c(F)ccc(NS(=O)(=O)N6CC[C@@H](F)C6)c5C#N)cc4c3=O)cc2)CC1)N1CCN(c2ccc3c(c2)CN([C@H]2CCC(=O)NC2=O)C3=O)CC1 [Example 269, (3R)-N-(2-cyano-3-{[3-(4-{4-[2-(4-{2-[(3S)-2,6-dioxopiperidin-3-yl]-1-oxo-2,3-dihydro-1H-isoindol-5-yl}piperazin-1-yl)propan-2-yl]piperidin-1-yl}phenyl)-4-oxo-3,4-dihydroquinazolin-6-yl]oxy}-4-fluorophenyl)-3-fluoropyrrolidine-1-sulfonamide]
